Patent publication US9901558B2, “Enhancer of survival of transplanted organ” (SBI Pharmaceuticals Co., Ltd., priority 2011, dated 2018)

Tested on: heterotopic heart-transplanted model mice
Assay: Heterotopic homologous heart transplantation in mice (B10 donors to CBA recipients), heart graft beating/survival
Format: in vivo
Settings: group (b), n = 5: both donor and recipient mice received ALA (100 mg/kg) alone
From the text: B10 mice (male, 10 weeks old on average, body weight: 20 to 25 g) were used as donors for the hearts to be transplanted. CBA mice (male, 10 weeks old on average, body weight: 20 to 25 g) were used as recipients to receive the hearts taken out of the donors. The procedures of the heterotopic homologous heart transplantation in mice followed the description of Experimental Manual of Organ Transplantation (Shujunsha Co., Ltd.), Paragraph 1, Part 2, 2-1-5 “Heterotopic Heart Transplantation in Mice”. Hereinafter, the procedures will be summarized.
The thorax of each donor mouse was opened under anesthesia and sufficiently perfused using 1 mL of saline supplemented with cold heparin, followed by excision of the heart. The excised heart was preserved in saline supplemented with cold heparin. The abdomen of each recipient mouse was opened under anesthesia, and the heart excised from the donor mouse was transplanted into the abdominal vena cava to prepare heterotopic heart-transplanted model mice.
The heterotopic heart-transplanted model mice were divided into groups (1) to (4) with administration patterns shown in Table 1 below. An experiment was conducted on the oral administration of the agent for promoting graft survival of the present invention. […]

SMILES: NCC(=O)CCC(=O)O [ALA, 5-aminolevulinic acid]
- long-term beating of heart graft: seen in none of these individuals
